Experimental data as given in publication PMC6979384, “Characterization of the plant homeodomain (PHD) reader family for their histone tail interactions” (Epigenetics & Chromatin, 2020).
Where no end group is shown, it is not given here. [ ]: non-standard residue; d: D form. Lys(Me3) = C[N+](C)(C)CCCC[C@H](N)C(=O)O

Key:
Experiment in all cases: Histone peptide microarray
Format in all cases: binding, human
PHF23 = settings: histone peptide array, GST-tagged reader; arrays performed twice, n of 4
How it was run: (§1)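 Each reader, produced as a GST fusion and purified, was tested at 0.5 μM on synthetic histone peptides (293 in total) carrying single or combinatorial marks. Intensities averaged over four replicates.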

KDM5A (3) = settings: histone peptide array, GST-tagged reader; arrays performed twice, n of 4
How it was run: as §1

KDM5B (1) = settings: histone peptide array, GST-tagged reader; arrays performed twice, n of 4
How it was run: as §1

DPF2 (PPC2W2) = settings: histone peptide array, GST-tagged reader; PPC2W2 = Dual PHD + C2W2-type Zn-finger; arrays performed twice, n of 4
How it was run: as §1

TAF3 = settings: histone peptide array, GST-tagged reader; arrays performed twice, n of 4
How it was run: as §1

ING4 = settings: histone peptide array, GST-tagged reader; arrays performed twice, n of 4
How it was run: as §1

ING1 = settings: histone peptide array, GST-tagged reader; arrays performed twice, n of 4
How it was run: as §1

DIDO1 = settings: histone peptide array, GST-tagged reader; arrays performed twice, n of 4
How it was run: as §1

PHF13 = settings: histone peptide array, GST-tagged reader; arrays performed twice, n of 4
How it was run: as §1

CHD5 (PPCC) = settings: histone peptide array, GST-tagged reader; PPCC = Dual PHD + Dual Chromodomain; arrays performed twice, n of 4
How it was run: as §1

TRIM66 (PB) = settings: histone peptide array, GST-tagged reader; PB = PHD + Bromodomain; arrays performed twice, n of 4
How it was run: as §1

PHF8 = settings: histone peptide array, GST-tagged reader; arrays performed twice, n of 4
How it was run: as §1

RAG2 = settings: histone peptide array, GST-tagged reader; arrays performed twice, n of 4
How it was run: as §1

CHD4 (PPCC) = settings: histone peptide array, GST-tagged reader; PPCC = Dual PHD + Dual Chromodomain; arrays performed twice, n of 4
How it was run: as §1

PHF21A = settings: histone peptide array, GST-tagged reader; arrays performed twice, n of 4
How it was run: as §1

KDM5A (1) = settings: histone peptide array, GST-tagged reader; arrays performed twice, n of 4
How it was run: as §1

BAZ2B = settings: histone peptide array, GST-tagged reader; arrays performed twice, n of 4
How it was run: as §1

ING3 = settings: histone peptide array, GST-tagged reader; arrays performed twice, n of 4
How it was run: as §1

ING2 = settings: histone peptide array, GST-tagged reader; arrays performed twice, n of 4
How it was run: as §1

CHD5 (PCC) = settings: histone peptide array, GST-tagged reader; PCC = PHD + Dual Chromodomain; arrays performed twice, n of 4
How it was run: as §1

ING5 = settings: histone peptide array, GST-tagged reader; arrays performed twice, n of 4
How it was run: as §1

PHRF1 (RP) = settings: histone peptide array, GST-tagged reader; arrays performed twice, n of 4
How it was run: as §1

AIRE (PP) = settings: histone peptide array, GST-tagged reader; arrays performed twice, n of 4
How it was run: as §1

KDM5B (3) = settings: histone peptide array, GST-tagged reader; arrays performed twice, n of 4
How it was run: as §1

KDM7A = settings: histone peptide array, GST-tagged reader; arrays performed twice, n of 4
How it was run: as §1

BPTF (PB) = settings: histone peptide array, GST-tagged reader; PB = PHD + Bromodomain; arrays performed twice, n of 4
How it was run: as §1

KDM4C (TTP) = settings: histone peptide array, GST-tagged reader; TTP = Tandem Tudor domain + PHD; arrays performed twice, n of 4
How it was run: as §1

MORC3 (CW) = settings: histone peptide array, GST-tagged reader; CW = CW-type Zn-finger; arrays performed twice, n of 4
How it was run: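 GST-tagged PHD readers, 0.5 μM, probed on a microarray of 293 synthetic histone peptides carrying single or combinatorial PTMs (optimized Petell protocol). Signals are averaged over 4 replicates and expressed as relative binding.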

PHF2 = settings: histone peptide array, GST-tagged reader; arrays performed twice, n of 4
How it was run: as §1

SP140L = settings: histone peptide array, GST-tagged reader; arrays performed twice, n of 4
How it was run: as §1

MLL5 = settings: histone peptide array, GST-tagged reader; arrays performed twice, n of 4
How it was run: as §1

Row | Substance | Array Heatmap signal, PHF23 (PHF23) | Array Heatmap signal, KDM5A (3) (KDM5A (3)) | Array Heatmap signal, KDM5B (1) (KDM5B (1)) | Array Heatmap signal, DPF2 (PPC2W2) (DPF2 (PPC2W2)) | Array Heatmap signal, TAF3 (TAF3) | Array Heatmap signal, ING4 (ING4) | Array Heatmap signal, ING1 (ING1) | Array Heatmap signal, DIDO1 (DIDO1) | Array Heatmap signal, PHF13 (PHF13) | Array Heatmap signal, CHD5 (PPCC) (CHD5 (PPCC)) | Array Heatmap signal, TRIM66 (PB) (TRIM66 (PB)) | Array Heatmap signal, PHF8 (PHF8) | Array Heatmap signal, RAG2 (RAG2) | Array Heatmap signal, CHD4 (PPCC) (CHD4 (PPCC)) | Array Heatmap signal, PHF21A (PHF21A) | Array Heatmap signal, KDM5A (1) (KDM5A (1)) | Array Heatmap signal, BAZ2B (BAZ2B) | Array Heatmap signal, ING3 (ING3) | Array Heatmap signal, ING2 (ING2) | Array Heatmap signal, CHD5 (PCC) (CHD5 (PCC)) | further results
1 | H3 (15-34)K27but: H3 15-34 | 0.5352 | 0.4198 | 0.6712 | 0.6771 | 0.309 | 0.489 | 0.5341 | 0.6557 | 0.644 | 0.5931 | 0.6313 | 0.4166 | 0.2497 | 0.6128 | 0.4988 | 0.5054 | 0.4927 | 0.4849 | 0.591 | 0.8263 | Array Heatmap signal, ING5 (ING5): 0.383; Array Heatmap signal, PHRF1 (RP) (PHRF1 (RP)): 0.4393; Array Heatmap signal, AIRE (PP) (AIRE (PP)): 0.5516; Array Heatmap signal, KDM5B (3) (KDM5B (3)): 0.5015; Array Heatmap signal, KDM7A (KDM7A): 0.4288; Array Heatmap signal, BPTF (PB) (BPTF (PB)): 0.3698; Array Heatmap signal, KDM4C (TTP) (KDM4C (TTP)): 0.5459; Array Heatmap signal, MORC3 (CW) (MORC3 (CW)): 0.372; Array Heatmap signal, PHF2 (PHF2): 0.467; Array Heatmap signal, SP140L (SP140L): 0.3805; Array Heatmap signal, MLL5 (MLL5): 0.5529
2 | H3.3K36me3 (27-45): H3.3 27-45 (KSAPSTGGV[Lys(Me3)]KPHRYRPGT; UniProt P84243 28-46, looked up, fragment) | 0.5271 | 0.4596 | 0.6389 | 0.6714 | 0.2966 | 0.493 | 0.5245 | 0.6308 | 0.6344 | 0.5971 | 0.5777 | 0.3825 | 0.254 | 0.6082 | 0.5086 | 0.5417 | 0.5018 | 0.4806 | 0.6059 | 0.837 | Array Heatmap signal, ING5 (ING5): 0.3836; Array Heatmap signal, PHRF1 (RP) (PHRF1 (RP)): 0.4414; Array Heatmap signal, AIRE (PP) (AIRE (PP)): 0.5852; Array Heatmap signal, KDM5B (3) (KDM5B (3)): 0.5477; Array Heatmap signal, KDM7A (KDM7A): 0.4319; Array Heatmap signal, BPTF (PB) (BPTF (PB)): 0.3644; Array Heatmap signal, KDM4C (TTP) (KDM4C (TTP)): 0.5574; Array Heatmap signal, MORC3 (CW) (MORC3 (CW)): 0.4025; Array Heatmap signal, PHF2 (PHF2): 0.459; Array Heatmap signal, SP140L (SP140L): 0.3873; Array Heatmap signal, MLL5 (MLL5): 0.5409
